Consider 23 molecules from US20130261077A1 (priority 2012, published 2013).

One assay deals with T1, FimH-CRD (Escherichia coli, UniProt P08191).
T1 construct: The first 177 amino acids of the FimH protein; thrombin tag (printed as 'fusion protein with thrombin') (cleaved yes); made in house; host or cells: bacteria (pET21b plasmid)
T1 sequence (P08191 22-177): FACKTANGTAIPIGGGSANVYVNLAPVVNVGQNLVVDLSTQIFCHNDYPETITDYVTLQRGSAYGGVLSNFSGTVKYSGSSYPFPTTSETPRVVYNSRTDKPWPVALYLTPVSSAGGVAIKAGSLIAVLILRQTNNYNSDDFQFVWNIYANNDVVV
Nature of the assay: Competitive binding assay by fluorescence polarization, assay 1 (compounds prepared by manual serial dilution). The essentials:
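Compounds at 0.4 nM–75 μM final (12 points, 3-fold steps, duplicate) compete with a 5 nM Alexa 647 mannoside probe for 60 nM FimH-CRD; 5 h room-temperature incubation in pH 7.0 Tris buffer with 2.5% DMSO, FP read-out, Kd from fitted curves. Assay 1 uses manual dilution, assay 2 robot-made frozen/thawed plates.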
(In fluorescence polarisation assays a small probe gives low polarisation when free and higher when bound to something large.)
For `COc1ccc([C@H]2O[C@H](CO)[C@@H](O)[C@H](O[C@H]3O[C@H](CO)[C@@H](O)[C@H](O)[C@@H]3O)[C@@H]2O)cc1O` [Compound 289, (2R,3S,4S,5S,6R)-2-[(2R,3R,4R,5R,6R)-3,5-Dihydroxy-2-(3-hydroxy-4-methoxy-phenyl)-6-(hydroxymethyl)tetrahydropyran-4-yl]oxy-6-(hydroxymethyl)tetrahydropyran-3,4,5-triol], the half-inhibitory concentration (IC50) (as a rule, the midpoint of a concentration-inhibition curve) came out at 175 nM and the Kd (as a rule, the free concentration of one partner at which half of the binding sites on the other are occupied at equilibrium, for simple one-to-one binding) was found to be 162 ± 241 nM.

As for `COc1ccc(C2O[C@H](CO)[C@@H](O)[C@H](O[C@H]3O[C@H](CO)[C@@H](O)[C@H](O)[C@@H]3O)[C@@H]2O)cc1Oc1ccc(NC(=O)C(C)C)cc1` (stereo partly shown) [Compound 290], the IC50 turned out to be 29 nM and the Kd was 11.9 ± 4.9 nM.

Molecule `CNC(=O)c1cccc(Oc2ccc([C@H]3O[C@H](CO)[C@@H](O)[C@H](O)[C@@H]3O)cc2)c1` [Compound 292, N-methyl-3-(4-((2R,3S,4R,5S,6R)-3,4,5-trihydroxy-6-(hydroxymethyl)tetrahydro-2H-pyran-2-yl)phenoxy)benzamide] yielded a Kd of 6 ± 0.4 nM.

Consider `COC(=O)Cc1cccc(Oc2ccc([C@H]3O[C@H](CO)[C@@H](O)[C@H](O)[C@@H]3O)cc2)c1` [Compound 293, methyl 2-(3-(4-((2R,3S,4R,5S,6R)-3,4,5-trihydroxy-6-(hydroxymethyl)tetrahydro-2H-pyran-2-yl)phenoxy)phenyl)acetate], for which the Kd worked out at 9 ± 2 nM.

`COC(=O)c1cccc(-c2ccc([C@H]3O[C@H](CO)[C@@H](O)[C@H](O)[C@@H]3O)cc2)c1` [Compound 294, methyl 4′-((2R,3S,4R,5S,6R)-3,4,5-trihydroxy-6-(hydroxymethyl)tetrahydro-2H-pyran-2-yl)-[1,1′-biphenyl]-3-carboxylate]: binding was put at a Kd of 11 ± 3 nM.

As to `CNC(=O)c1cccc(-c2ccc([C@H]3O[C@H](CO)[C@@H](O)[C@H](O)[C@@H]3O)cc2)c1` [Compound 295, N-methyl-4′-((2R,3S,4R,5S,6R)-3,4,5-trihydroxy-6-(hydroxymethyl)tetrahydro-2H-pyran-2-yl)-[1,1′-biphenyl]-3-carboxamide], the Kd was determined as 12 ± 3 nM.

Regarding `CNC(=O)c1ccc(-c2ccc([C@H]3O[C@H](CO)[C@@H](O)[C@H](O)[C@@H]3O)cc2)cc1` [Compound 296, N-methyl-4′-((2R,3S,4R,5S,6R)-3,4,5-trihydroxy-6-(hydroxymethyl)tetrahydro-2H-pyran-2-yl)-[1,1′-biphenyl]-4-carboxamide], the affinity, expressed as Kd, was 5 ± 0.4 nM.

The target of a further assay is T1, FimH-CRD. In words: Competitive binding assay by fluorescence polarization, assay 2 (compounds prepared by robotics, plates frozen and thawed). The procedure:
The first 177 amino acids of the FimH protein were expressed as a fusion protein with thrombin in a pET21b plasmid in bacteria. This FimH protein sequence contains the carbohydrate recognition domain (CRD) and shall be termed FimH-CRD. Following bacterial expression of the protein, the FimH-CRD protein was purified to homogeneity and the thrombin tag removed by protease cleavage. A competitive binding assay by fluorescence polarization was performed using 5 nM of the Alexa 647 mannoside probe and 60 nM of the FimH-CRD. The samples are assayed in a low volume 384 well microtiter plate in a final volume of 20 μl. The final assay buffer conditions are the following, 50 mM Tris-Cl, ph 7.0, 100 mM NaCl, 1 mM EDTA, 5 mM β-mercaptoethanol, 0.05% BSA and 2.5% DMSO. Two assays are performed for FimH, termed assay 1 or assay 2. The assay conditions are the same for both assays except the following: assay 1 has compounds prepared by manual dilution in a serial dilution factor with 12-point dose response while assay 2 has compounds prepared by a robotics system also through a serial dilution factor (12 point dose response) and initially prepared in duplicate in 384 well-Corning polypropylene round bottom plates. The assay 2 plates have compound which is then frozen and must be thawed prior to use. Initially the Alexa 647 probe and the FimH-CRD are added to the assay buffer and then 0.5 μl of test compound (assay 1 or 2) between 0.4 nM to 75 μM final concentration are added (12 point titration with 3-fold serial dilution). Control wells for the Alexa 647 probe are prepared with the same conditions except for the addition of the FimH-CRD protein. Plates are then incubated for 5 hrs at room temperature in the dark and under humid conditions to prevent drying. Plates are read using the SpectraMax Paradigm multi-mode plate reader and the appropriate fluorescent polarization detection cartridge (Alexa-647).
Alexa 647 mannoside probe is prepared using the similar procedure reported for FAM mannoside (Han, Z. et. al., 2010, J. Med. Chem., 53, 4779) and is described in the scheme below.
To a blue colored stirred solution of (2S,3S,4S,5S,6R)-2-(4-aminobutoxy)-6-(hydroxymethyl)tetrahydropyran-3,4,5-triol (2.21 mg, 0.009 mmol) and the (2E)-2-[(2E,4E)-5-[3,3-dimethyl-5-sulfonato-1-(3-sulfonatopropyl)indol-1-ium-2-yl]penta-2,4-dienylidene]-3-[6-(2,5-dioxopyrrolidin-1-yl)oxy-6-oxo-hexyl]-3-methyl-1-(3-sulfonatopropyl)indoline-5-sulfonate (Potassium Ion (3)) (4.9 mg, 0.0044 mmol) in DMF (44 μL) is added Et3N (5.4 mg, 7.0 μL, 0.053 mmol) at RT. The solution is stirred at room temperature over night, concentrated, dissolved in water and purified on 12 g C-18 silica gel cartridge on Isolera system using acetonitrile in water (0 to 40%, 10 CV) and followed by lyophilization to afford Alexa 647 mannoside probe (3.3 mg, 34%) as deep blue solid.
The Kd values of the compounds are determined from dose response curves using twelve concentrations per compound in duplicate. Curves are fitted to data points using Fluorescence Polarization competitive displacement analysis, and Kds are interpolated from the resulting curves using GraphPad Prism software, version […] (GraphPad software Inc., San Diego, Calif., USA).
The molecule `C#Cc1cccc([C@H]2O[C@H](CO)[C@@H](O)[C@H](O)[C@@H]2O)c1` [Compound 73, ((2R,3S,4R,5S,6R)-2-(3-Ethynylphenyl)-6-(hydroxymethyl)tetrahydropyran-3,4,5-triol)] displayed a Kd of 33.8 ± 13.6 nM.

`C#Cc1ccc([C@H]2O[C@H](CO)[C@@H](O)[C@H](O)[C@@H]2O)cc1` [Compound 74, (2R,3S,4R,5S,6R)-2-(4-Ethynylphenyl)-6-(hydroxymethyl)tetrahydropyran-3,4,5-triol] had a Kd of 26.4 ± 14.3 nM.

For the molecule `C#Cc1cc([C@H]2O[C@H](CO)[C@@H](O)[C@H](O)[C@@H]2O)ccc1OC` [Compound 75, (2R,3S,4R,5S,6R)-2-(3-Ethynyl-4-methoxy-phenyl)-6-(hydroxymethyl)tetrahydropyran-3,4,5-triol], the Kd worked out at 40 ± 11.3 nM.

`Cc1c(Br)cccc1[C@H]1O[C@H](CO)[C@@H](O)[C@H](O)[C@@H]1O` [Compound 76, (2R,3S,4R,5S,6R)-2-(3-Bromo-2-methyl-phenyl)-6-(hydroxymethyl)tetrahydropyran-3,4,5-triol]: binding was characterised by a dissociation constant (Kd) of 38.9 ± 13 nM.

As to `COc1cc([C@H]2O[C@H](CO)[C@@H](O)[C@H](O)[C@@H]2O)ccc1Br` [Compound 77], binding was characterised by a dissociation constant (Kd) of 81.7 ± 11 nM.

Molecule `COC(=O)c1cccc(Cn2cc(-c3ccc([C@H]4O[C@H](CO)[C@@H](O)[C@H](O)[C@@H]4O)cc3)nn2)c1` [Compound 80, Methyl 3-[[4-[4-[(2R,3S,4R,5S,6R)-3,4,5-trihydroxy-6-(hydroxymethyl)tetrahydropyran-2-yl]phenyl]triazol-1-yl]methyl]benzoate] came in with a Kd of 12.3 ± 6.2 nM.

As to `OC[C@H]1O[C@H](c2ccc(-c3cn(Cc4ccccc4)nn3)cc2)[C@@H](O)[C@@H](O)[C@@H]1O` [Compound 81, (2R,3S,4R,5S,6R)-2-[4-(1-Benzyltriazol-4-yl)phenyl]-6-(hydroxymethyl)tetrahydropyran-3,4,5-triol], the dissociation constant (Kd) was determined as 15.2 ± 4.3 nM.

In turn, `COC(=O)c1cc(C#Cc2cc([C@H]3O[C@H](CO)[C@@H](O)[C@H](O)[C@@H]3O)ccc2OC)cc(C(=O)OC)c1` [Compound 82, Dimethyl 5-[2-[2-methoxy-5-[(2R,3S,4R,5S,6R)-3,4,5-trihydroxy-6-(hydroxymethyl)tetrahydropyran-2-yl]phenyl]ethynyl]benzene-1,3-dicarboxylate] gave a dissociation constant Kd of 23.2 ± 15.1 nM.

As to `CNC(=O)c1cccc(C#Cc2cc([C@H]3O[C@H](CO)[C@@H](O)[C@H](O)[C@@H]3O)ccc2OC)c1` [Compound 83, 3-[2-[2-Methoxy-5-[(2R,3S,4R,5S,6R)-3,4,5-trihydroxy-6-(hydroxymethyl)tetrahydropyran-2-yl]phenyl]ethynyl]-N-methyl-benzamide], the Kd was 32.2 ± 5.8 nM.

In turn, `CNC(=O)c1cc(C#Cc2cc([C@H]3O[C@H](CO)[C@@H](O)[C@H](O)[C@@H]3O)ccc2OC)cc(C(=O)NC)c1` [Compound 84, 5-[2-[2-Methoxy-5-[(2R,3S,4R,5S,6R)-3,4,5-trihydroxy-6-(hydroxymethyl)tetrahydropyran-2-yl]phenyl]ethynyl]-N1,N3-dimethyl-benzene-1,3-dicarboxamide] displayed a Kd of 27.5 ± 3.9 nM.

On to `CNC(=O)c1cc(C#Cc2cccc([C@H]3O[C@H](CO)[C@@H](O)[C@H](O)[C@@H]3O)c2)cc(C(=O)NC)c1` [Compound 85, N1,N3-Dimethyl-5-[2-[3-[(2R,3S,4R,5S,6R)-3,4,5-trihydroxy-6-(hydroxymethyl)tetrahydropyran-2-yl]phenyl]ethynyl]benzene-1,3-dicarboxamide], for which the Kd was under 5 nM.

In turn, `COC(=O)c1cccc(C#Cc2cccc([C@H]3O[C@H](CO)[C@@H](O)[C@H](O)[C@@H]3O)c2)c1` [Compound 86, Methyl 3-[2-[3-[(2R,3S,4R,5S,6R)-3,4,5-trihydroxy-6-(hydroxymethyl)tetrahydropyran-2-yl]phenyl]ethynyl]benzoate] had a Kd of 23.7 ± 10.8 nM.

With `COC(=O)c1ccc(C#Cc2cccc([C@H]3O[C@H](CO)[C@@H](O)[C@H](O)[C@@H]3O)c2)cc1` [Compound 87, Methyl 4-[2-[3-[(2R,3S,4R,5S,6R)-3,4,5-trihydroxy-6-(hydroxymethyl)tetrahydropyran-2-yl]phenyl]ethynyl]benzoate], the dissociation constant (Kd) amounted to 6.8 ± 0.2 nM.

Molecule `COC(=O)c1cccc(C#Cc2ccc([C@H]3O[C@H](CO)[C@@H](O)[C@H](O)[C@@H]3O)cc2)c1` [Compound 88, Methyl 3-[2-[4-[(2R,3S,4R,5S,6R)-3,4,5-trihydroxy-6-(hydroxymethyl)tetrahydropyran-2-yl]phenyl]ethynyl]benzoate] came in with an equilibrium dissociation constant (Kd) of 11.8 ± 7.9 nM.

Molecule `COC(=O)c1ccc(C#Cc2ccc([C@H]3O[C@H](CO)[C@@H](O)[C@H](O)[C@@H]3O)cc2)cc1` [Compound 89, Methyl 4-[2-[4-[(2R,3S,4R,5S,6R)-3,4,5-trihydroxy-6-(hydroxymethyl)tetrahydropyran-2-yl]phenyl]ethynyl]benzoate] gave a dissociation constant Kd of 14.5 ± 2.2 nM.

On to `CNC(=O)c1cc(C#Cc2cccc([C@H]3O[C@H](CO)[C@@H](O)[C@H](O)[C@@H]3O)c2C)cc(C(=O)NC)c1` [Compound 90, N1,N3-Dimethyl-5-[2-[2-methyl-3-[(2R,3S,4R,5S,6R)-3,4,5-trihydroxy-6-(hydroxymethyl)tetrahydropyran-2-yl]phenyl]ethynyl]benzene-1,3-dicarboxamide], for which the Kd is 20.3 ± 2.2 nM.
